# Laboratory results published in patent US7713969B2, “Compositions and methods for treatment of cancer” (ArQule, Inc., priority 2005, dated 2010).
# Tests used:
# HT29 = assay: Cell viability MTS assay; assay type: cell-based, human
# Protocol: (§1) Cell viability was determined by measuring the activity of dehydrogenase enzymes in metabolically active cells using a tetrazolium compound, MTS. The assay was performed as described in Promega Technical Bulletin No. 169 (CellTiter 96 Aqueous Non-Radioactive Cell Proliferation Assay). Thirteen human cancer cell lines were assayed (see, e.g., Table 1). Cells were maintained at 37° C., 5% CO2. Adherent cells were maintained DMEM media (4.5 g/L glucose) supplemented with 15% heat-inactivated FBS, 10 mM L-glutamine, and 10 mM Hepes pH 7.5. Suspension cells were maintained in RPMI 1640 media, supplemented with 10% heat-inactivated FBS and 10 mM Hepes pH 7.5. Briefly, cells were seeded in 96-well plates as set forth in Table 1 and incubated for 16-24 hours. Candidate compounds were serially diluted in DMSO, further diluted in cell culture media, and then added to cells (final DMSO concentration of 0.33%). Cells were incubated in the presence of candidate compound for 72 hours. MTS stock solution (MTS 2 gm/L, PMS […] in PBS) was added to the cells (final concentration MTS […] and PMS 7.67 mg/L) and incubated for 4 hours. SDS was added to a final concentration of 1.4% and absorbance at 490 nm was measured within two hours using a platereader. The IC50 was defined as the concentration of compound that results in a 50% reduction in the number of viable cells as compwered to control wells treated with DMSO only (0.33%) and was calculated using non-linear regression analyswas. IC50 values were given in Table 2 for the compounds listed.
# MDA-MB-231 = assay: Cell viability MTS assay; assay type: cell-based, human
# Protocol: as §1
# [1] = Homo sapiens, HT-29, 72 hours with compound
# [2] = Homo sapiens, MDA-MB-231, 72 hours with compound
IC50 (HT29; 72 hours with compound),IC50 (MDA-MB-231; 72 hours with compound),IC50 (HT29; [1]),IC50 (MDA-MB-231; [2]),Molecule
,,4.45 µM,5.89 µM,"O=C1[C@@H](c2c[nH]c3ccccc23)[C@H](c2cn3c4c(cccc24)CCC3)C(=O)N1COP(=O)(O)O (racemic) [(±)-Phosphoric acid mono-[trans-3-(5,6-dihydro-4H-pyrrolo[3,2,1-ij]quinolin-1-yl)-4-(1H-indol-3-yl)-2,5-dioxo-pyrrolidin-1-ylmethyl]ester]"
,,37.4 µM,43.4 µM,"O=C1NC(=O)[C@@H](c2cn3c4c(cccc24)CCC3)[C@@H]1c1c[nH]c2ccc(-c3cccc4ccccc34)cc12 (racemic) [Example 37, (±)-Trans-3-(5,6-dihydro-4H-pyrrolo[3,2,1-ij]quinolin-1yl)-4-(5-(1-naphthyl)-1H-indol-3-yl)pyrrolidine-2,5-dione]"
,,10.6 µM,13.1 µM,"COc1ccc(-c2ccc3[nH]cc([C@@H]4C(=O)NC(=O)[C@H]4c4cn5c6c(cccc46)CCC5)c3c2)cc1 (racemic) [Example 38, (±)-Trans-3-(5,6-dihydro-4H-pyrrolo[3,2,1-ij]quinolin-1yl)-4-(5-(4-methoxyphenyl)-1H-indol-3-yl)pyrrolidine-2,5-dione]"
,,10.5 µM,,"Cc1cccc(-c2ccc3[nH]cc([C@@H]4C(=O)NC(=O)[C@H]4c4cn5c6c(cccc46)CCC5)c3c2)c1 (racemic) [Example 39, (±)-Trans-3-(5,6-dihydro-4H-pyrrolo[3,2,1-ij]quinolin-1yl)-4-(5-(3-methylphenyl)-1H-indol-3-yl)pyrrolidine-2,5-dione]"
,,10.5 µM,,"O=C1NC(=O)[C@@H](c2cn3c4c(cccc24)CCC3)[C@@H]1c1ccc(F)cc1Cl (racemic) [Example 40, (±)-Trans-3-(5,6-dihydro-4H-pyrrolo[3,2,1-ij]quinolin-1yl)-4-(2-chloro-4-fluorophenyl)pyrrolidine-2,5-dione]"
,,4.65 µM,7.63 µM,"O=C1NC(=O)[C@@H](c2cn3c4c(cccc24)CCC3)[C@@H]1c1c(Cl)cccc1Cl (racemic) [Example 41, (±)-Trans-3-(5,6-dihydro-4H-pyrrolo[3,2,1-ij]quinolin-1yl)-4-(2,6-dichlorophenyl)pyrrolidine-2,5-dione]"
,,44.1 µM,49.6 µM,"O=C1NC(=O)[C@@H](c2cn3c4c(cccc24)CCC3)[C@@H]1c1ccc(Br)cc1 (racemic) [Example 42, (±)-Trans-3-(5,6-dihydro-4H-pyrrolo[3,2,1-ij]quinolin-1yl)-4-(4-bromophenyl)pyrrolidine-2,5-dione]"
,,48.7 µM,54.5 µM,"O=C1NC(=O)[C@@H](c2cn3c4c(cccc24)CCC3)[C@@H]1c1ccc(Cl)cc1 (racemic) [Example 43, (±)-Trans-3-(5,6-dihydro-4H-pyrrolo[3,2,1-ij]quinolin-1yl)-4-(4-chlorophenyl)pyrrolidine-2,5-dione]"
,,12.5 µM,14.1 µM,"O=C1NC(=O)[C@@H](c2cn3c4c(cccc24)CCC3)[C@@H]1c1ccc(OC(F)(F)F)cc1 (racemic) [Example 44, (±)-Trans-3-(5,6-dihydro-4H-pyrrolo[3,2,1-ij]quinolin-1yl)-4-(4-trifluoromethoxyphenyl)pyrrolidine-2,5-dione]"
,,27.6 µM,42.7 µM,"O=C1NC(=O)[C@@H](c2cn3c4c(cccc24)CCC3)[C@@H]1c1ccsc1 (racemic) [Example 45, (±)-Trans-3-(5,6-dihydro-4H-pyrrolo[3,2,1-ij]quinolin-1yl)-4-(thiophen-3-yl)pyrrolidine-2,5-dione]"
,,4.76 µM,> 100 µM,"O=C1NC(=O)[C@@H](c2cn3c4c(cccc24)CCC3)[C@@H]1c1ccccc1F (racemic) [Example 46, (±)-Trans-3-(5,6-dihydro-4H-pyrrolo[3,2,1-ij]quinolin-1yl)-4-(2-fluorophenyl)pyrrolidine-2,5-dione]"
,,8.39 µM,14.8 µM,"O=C1NC(=O)[C@@H](c2cn3c4c(cccc24)CCC3)[C@@H]1c1ccc(Cl)cc1Cl (racemic) [Example 48, (±)-Trans-3-(5,6-dihydro-4H-pyrrolo[3,2,1-ij]quinolin-1yl)-4-(2,4-dichlorophenyl)pyrrolidine-2,5-dione]"
,,14.6 µM,,"O=C1NC(=O)[C@@H](c2cn3c4c(cccc24)CCC3)[C@@H]1c1ccccc1 (racemic) [Example 49, (±)-Trans-3-(5,6-dihydro-4H-pyrrolo[3,2,1-ij]quinolin-1yl)-4-phenyl-pyrrolidine-2,5-dione]"
2.9 µM,3.14 µM,,,"CC(N)C(=O)OCN1C(=O)[C@@H](c2c[nH]c3ccccc23)[C@H](c2cn3c4c(cccc24)CCC3)C1=O (mixture of isomers) [Example 57, (±)-trans-2-Amino-propionic acid-3-(5,6-dihydro-4H-pyrrolo[3,2,1-ij]quinolin-1-yl)-4-(1H-indol-3-yl)-2,5-dioxo-pyrrolidin-1-yl methyl ester]"
2.77 µM,3.45 µM,,,"NCC(=O)OCN1C(=O)[C@@H](c2c[nH]c3ccccc23)[C@H](c2cn3c4c(cccc24)CCC3)C1=O (racemic) [Example 58, (±)-trans-2-Amino-acetic acid-3-(5,6-dihydro-4H-pyrrolo[3,2,1-ij]quinolin-1-yl)-4-(1H-indol-3-yl)-2,5-dioxo-pyrrolidin-1-yl methyl ester]"
,,3.74 µM,4.47 µM,"CN(C)CC(=O)OCN1C(=O)[C@@H](c2c[nH]c3ccccc23)[C@H](c2cn3c4c(cccc24)CCC3)C1=O (racemic) [Example 59, (±)-trans-2-dimethylamino-acetic acid-3-(5,6-dihydro-4H-pyrrolo[3,2,1-ij]quinolin-1-yl)-4-(1H-indol-3-yl)-2,5-dioxo-pyrrolidin-1-ylmethyl ester]"
,,3.59 µM,3.55 µM,"O=C(OCN1C(=O)[C@@H](c2c[nH]c3ccccc23)[C@H](c2cn3c4c(cccc24)CCC3)C1=O)c1ccncc1 (racemic) [Example 60, (±)-trans-Isonicotinic acid-3-(5,6-dihydro-4H-pyrrolo[3,2,1-ij]quinolin-1-yl)-4-(1H-indol-3-yl)-2,5-dioxo-pyrrolidin-1-ylmethyl ester]"
,,,49.2 µM,"O=C1NC(=O)[C@@H](c2cn3c4c(cccc24)CCC3)[C@@H]1c1ccc(F)cc1 (racemic) [Example 70, (±)-Trans-3-(5,6-dihydro-4H-pyrrolo[3,2,1-ij]quinolin-1-yl)-4-(4-fluorophenyl)pyrrolidine-2,5-dione]"
,,48.7 µM,97.5 µM,"O=C1NC(=O)[C@@H](c2cn3c4c(cccc24)CCC3)[C@@H]1c1ccc(OCc2ccccc2)cc1 (racemic) [Example 71, (±)-Trans-3-[4-(benzyloxy)phenyl]-4-(5,6-dihydro-4H-pyrrolo[3,2,1-ij]quinolin-1-yl)pyrrolidine-2,5-dione]"
,,90.7 µM,> 100 µM,"O=C1NC(=O)[C@@H](c2cn3c4c(cccc24)CN(C(=O)OCc2ccccc2)CC3)[C@@H]1c1c[nH]c2ccccc12 (racemic) [Example 74, (±)-Trans-7-[4-(1H-indol-3-yl)-2,5-dioxo-pyrrolidin-3-yl]-3,4-dihydro-1H-[1,4]diazepino[6,7,1-hi]indole-2-carboxylic acid benzyl ester]"
,,> 100 µM,> 100 µM,"O=C1NC(=O)[C@@H](c2cn3c4c(cccc24)CNCC3)[C@@H]1c1c[nH]c2ccccc12 (racemic) [Example 75, (±)-Trans-3-(1H-indol-3-yl)-4-(1,2,3,4-tetrahydro-[1,4]diazepino[6,7,1-hi]indol-7-yl)-pyrrolidine-2,5-dione]"
,,22.6 µM,> 100 µM,"O=C1[C@@H](c2c[nH]c3ccccc23)[C@H](c2cn3c4c(cccc24)CCC3)C(=O)N1COP(=O)(OCc1ccccc1)OCc1ccccc1 (relative stereo) [phosphoric acid dibenzyl ester trans-3-(5,6-dihydro-4H-pyrrolo[3,2,1-ij]quinolin-1-yl)-4-(1H-indol-3-yl)-2,5-dioxo-pyrrolidin-1-ylmethyl ester]"
,,62.7 µM,61.2 µM,"O=C1NC(=O)C(c2cn3c4c(cccc24)CCC3)=C1c1ccccc1C(F)(F)F [Example 6, 3-(5,6-dihydro-4H-pyrrolo[3,2,1-ij]quinolin-1-yl)-4(2-trifluoromethyl-phenyl)-pyrrole-2,5-dione]"
,,> 100 µM,> 100 µM,"O=C1NC(=O)C(c2cn3c4c(cccc24)CCC3)=C1c1cccs1 [Example 7, 3-(5,6-Dihydro-4H-pyrrolo[3,2,1-ij]quinolin-1-yl)-4-thiophen-2-yl-pyrrole-2,5-dione]"
,,,57 µM,"O=C1NC(=O)C(c2cn3c4c(cccc24)CCC3)=C1c1ccc(F)cc1 [Example 67, 3-(5,6-dihydro-4H-pyrrolo[3,2,1-ij]quinolin-1-yl)-4-(4-fluorophenyl)-1H-pyrrole-2,5-dione]"
26.2 µM,,,,"(±)-Trans-3-(5,6-dihydro-4H-pyrrolo[3,2,1-ij]quinolin-1-yl)-4-(4-fluorophenyl)pyrrolidine-2,5-dione [Example 70]"

Molecule,IC50 (HT29; 72 hours with compound),IC50 (MDA-MB-231; 72 hours with compound),IC50 (HT29; [1]),IC50 (MDA-MB-231; [2])
"3-(4-Benzoyloxyphenyl)-4-(5,6-dihydro-4H-pyrrolo[3,2,1-ij]quinolin-1-yl)-pyrrole-2,5-dione [Example 29]",> 100 µM,> 100 µM,,
"3-(5,6-dihydro-4H-pyrrolo[3,2,1-ij]quinolin-1-yl)-4-(4-fluorophenyl)-1H-pyrrole-2,5-dione [Example 67]",53.1 µM,,,
